Assays:
[1] = test system: Cord blood CD34+ cells; test: TPO-induced megakaryocytic maturation/differentiation of cord blood CD34+ cells in culture; assay type: cell-based; details: for inhibition at 0.03 µM: 30 nM, CD34+ cells grown with TPO in plasma-containing medium, vs. control, read-out: inhibition of megakaryocytic maturation (percentage of GPIIIa positive cells); for Cell expansion % of control / GPIIIa expression median fluorescence % of control / GPIIIa positive cells % of control / Relative cell size % of control: 1.0 μM, 12 days, plasma-containing medium with TPO, mean ± SE, n = 4; for concentration giving maximal effect on megakaryocyte maturation / IC50: TPO-induced maturation, FIG. 1; for IC50: mean of 2-4 independent experiments, read-out: IC50 against megakaryocyte maturation
Procedure: Chemicals. Compound #1 was kept at room temperature. Stock solutions (10 mM) were made in DMSO, or PBS pH 5. 0, as indicated. Stock solutions were diluted in culture medium immediately before addition to cell suspensions.
(§1) Cell culture and drug regimes. Cord blood CD34+ cells were purchased from Biowhittacker USA or were freshly isolated by immunomagnetic selection using standard laboratory procedures. Cells were seeded in 24-well tissue culture plates at a density of 0.15×10^6 cells/ml and cultured for 12-14 days in Iscove's modified Dulbecco's medium containing 40 ng/ml TPO (as described in Mathur A, Hong Y. Martin J F, Erusalimsky J D (2001) Megakaryocytic differentiation is accompanied by a reduction in cell migratory potential. Br J Haematol 112:459) with anagrelide, Compound #1, or vehicle (DMSO).
(§2) Cell counting. Cell density was determined using a Sysmex CDA-500 Particle Analyzer.
(§3) Analysis of megakaryocytic differentiation. CD61 expression (a marker of megakaryocytic differentiation) was quantified by flow cytometry using an anti-GPIIIa antibody. Cell diameter was determined using a Sysmex CDA-500 Particle Analyzer.

[2] = test system: non-megakaryocytic cells (CD61-); test: Growth of non-megakaryocytic (CD61-) cells in the TPO-stimulated CD34+ cultures; assay type: cell-based; details: 12-day cultures, FIG. 2
Procedure: as §1, §2, §3
To assess whether the inhibitory activities of anagrelide and Compound #1 in these cultures were selective for the megakaryocytic lineage, the effects of these compounds were evaluated on the growth of the non-megakaryocytic cells. In 12-day control cultures these cells (CD61-) represent 20-30% of the total population.

| IC50 [1] [nM] | SMILES | inhibition at 0.03 µM [1] [%] | Cell expansion % of control [1] | GPIIIa expression median fluorescence % of control [1] | GPIIIa positive cells % of control [1] | Relative cell size % of control [1] | concentration giving maximal effect on megakaryocyte maturation [1] [µM] | effect on growth of non-megakaryocytic cells (selectivity for megakaryocytic lineage) [2] |
| --- | --- | --- | --- | --- | --- | --- | --- | --- |
| 110 to 130 | O=C1CN2Cc3c(ccc(Cl)c3Cl)N=C2N1 [Anagrelide] | 28 | 48.0 ± 4.0 % of control | 51.3 ± 11.9 % of control | 41.9 ± 6.6 % of control | 80.4 ± 4.5 % of control | 1 | neither anagrelide nor Compound #1 inhibited the growth of non-megakaryocytic cells |
| 110 to 130 | O=CC(=O)NC1=Nc2ccc(Cl)c(Cl)c2CN1 [Compound #1, N-(5,6-dichloro-3,4-dihydroquinazolin-2-yl)-2-oxoacetamide] | 20 | 45.8 ± 3.9 % of control | 54.4 ± 14.7 % of control | 34.5 ± 4.4 % of control | 78.7 ± 5.3 % of control | 1 | neither anagrelide nor Compound #1 inhibited the growth of non-megakaryocytic cells |

From patent US7700608B2, “Quinazoline derivatives and their use in the treatment of thrombocythemia” (Shire Holdings AG, priority 2004, dated 2010)
